Assay results from US11684599B2, “Very-long-chain polyunsaturated fatty acids, elovanoid hydroxylated derivatives, and methods of use” (Board of Supervisors of Louisiana State University and …, priority 2017, dated 2023).

Assays:
ARPE-19 cells = assay: UOS-induced apoptosis in ARPE-19 cells (Hoechst-positive pyknotic cells); format: cell-based, human; conditions: for protection against UOS: free fatty acids, ARPE-19 cells; for UOS-induced apoptosis: 200 nM; for UOS-induced apoptotic cell death: concentration-dependent 50-500 nM, highest inhibition at 500 nM, lowest at 50 nM
Procedure: FIGS. 6A and 6B depicts immunostaining of primary human RPE cells using specific markers ZO-1 (Zona occludens-1), RPE65, MITF (Micro-ophtalmia-associated Transcription Factor) and β-catenin, as well as light microscopy depicting primary human RPE cell morphology at different passages in culture. ARPE-19 cells were grown and maintained in T-75 mM flasks in DMEM F-12 medium containing 10% FBS and incubated at 37° C. with a constant supply of 5% CO2. Cells at 75-80% confluence (72 h growth in DMEM/F12+10% FBS) in 6-well plates were serum-starved for 8 h before exposure. […] The serum-starved cells were treated with TNF-α (Sigma-Aldrich, St. Louis, Mo.) (10 ng/ml) and H2O2 (600 μM) to induce oxidative stress and challenged with increasing concentrations (50-500 nM) of VLC-PUFA (C32:6n3 and C34:6n3) simultaneously with oxidative stress for 16 h (apoptosis) and 6 h (Western-blot) before detection of apoptosis and harvesting for protein analysis. In some experiments, DHA at a concentration of 100 nM and 15-LOX-1 inhibitor PD146176 at a concentration of 1 μM was added to treat the RPE cells under stress. Cell extracts were made and protein concentrations adjusted by Bio-Rad (Hercules, Calif.) protein reagent and used for Western blot analysis. To assess cell death, hRPE and ARPE-19 cells were fixed with methanol for 15 mins, washed with 1×PBS then loaded with 2 μM Hoechst dissolved in a Locke's solution (Promega) and incubated for another 15 mins before imaging. Cells were then viewed by using a Zeiss LSM 510 confocal microscope under UV fluorescence. Images were recorded and cell apoptosis was assessed by using an automated unbiased method.

[1] = tested on: rats with middle cerebral artery occlusion (MCAo); assay: Immunohistochemistry (NeuN, GFAP, SMI-71, IgG) after MCAo; format: in vivo, rat; conditions: for IgG staining intensity / IgG staining in the cortex: 7 days; for IgG staining intensity: compared with CSF-treated group; for IgG immunoreactivity in subcortex / IgG immunoreactivity in whole hemisphere (total): versus the vehicle group
Procedure: Male Sprague-Dawley rats (Charles River Lab., Wilmington, Mass.) weighing 280-340 g were fasted overnight but allowed free access to water. Atropine sulfate (0.5 mg/kg, i.p.) was injected 10 mins before anesthesia. Anesthesia was induced with 3% isoflurane in a mixture of 70% nitrous oxide and 30% oxygen. All rats were orally intubated and mechanically ventilated. During ventilation, the animals were paralyzed with pancuronium bromide (0.6 mg/kg, i.p.). The catheters were implanted into the right femoral artery and vein for the blood sampling and infusion of drug. Serial analyses of arterial blood gases, plasma glucose, arterial blood pressure and heart beating rate were conducted before and during surgical procedure. Rectal (CMA/150 Temperature Controller, CMA/Microdialysis AB, Stockholm, Sweden) and cranial (temporalis muscle; Omega Engineering, Stamford, Conn.) temperatures were closely monitored before, during and after MCAo. Rectal temperature and body weight were monitored daily until sacrifice.
Rats underwent 2 h of right middle cerebral artery occlusion (MCAo) by an intraluminal-filament. In brief, the right common carotid artery (CCA) bifurcation was exposed through a midline neck incision and the occipital artery branches of the external carotid artery were isolated, ligated and dissected. After careful isolation of the internal carotid artery (ICA), a 3-0 monofilament coated with poly-L-lysine was advanced through the ICA to the MCA until mild resistance was felt. The neck incision was closed with a silk suture and the animals were then allowed to recover. After 2 h of MCAo, rats were re-anesthetized with the same anesthetic combination. Temperature probes were re-inserted, and intraluminal sutures were carefully removed. The animals given free access to food and water for 7 days.
Thirty minutes after suture removal, a brain infusion cannula was implanted into the right lateral ventricle for treatment administration in each rat. Rats were anesthetized with 3% isoflurane and were secured to a stereotaxic apparatus with skull leveled between bregma and lambda. A sterile stainless steel cannula (5-mm long) was implanted into the lateral ventricle using the stereotaxic coordinates (0.2 mm caudal to bregma, 2 mm lateral to midline, and 5 mm below the dura). Cannulas were removed after treatment was completed.
Elovanoids (ELV) as sodium salts (Na) or methyl esters (Me) were dissolved in artificial cerebral spinal fluid (CSF) and administered into right lateral ventricle 1 hour after 2 h of MCAo. The following ELVs were used: ELV-N32-Na, ELV-N32-Me, ELV-N34-Na and ELV-N34-Me (5 μg/[…]) or CSF (50 μl). All treatments were administered by a researcher blinded to the treatment groups.
Brain edema was measured by the differences of ipsi- and contra-lateral hemispheres. Immunohistochemical procedures were performed on the adjacent sections to identify specific vascular and neuronal elements in the ischemic core and penumbra. The following antibodies were used: rat blood-brain barrier (SMI-71, BioLegend, San Diego, Calif.) as a vascular marker; glial fibrillary acid protein (GFAP, Agilent Tech. Santa Clara, Calif.) to label reactive astrocytes; and neuron-specific nuclear protein (NeuN, Chemicon/Millipore, Billerica, Mass.) and biotinylated anti-rat immunoglobulin (IgG) antibody (BioLegend, San Diego, Calif.) to detect BBB breakdown. The number of positive cells and immunopositive vessels were counted in the cortex and striatum at the level of the central lesion (bregma level −0.3 mm). Data were expressed as numbers of positive cells and vessels per high-power microscopic field (magnification ×40).
The images of sections were obtained using confocal laser microscope (LSM510, Carl Zeiss MicroImaging, Irvine, Calif.) following specific experimental protocols. The images were acquired with dimension 212.3 μm×212.3 μm using Zen software (Carl Zeiss MicroImaging). Image analysis was conducted using ImageJ software. […]

SMILES	protection against UOS (ARPE-19 cells)	IgG staining intensity [1]	UOS-induced apoptosis (ARPE-19 cells)	UOS-induced apoptotic cell death (ARPE-19 cells)	IgG staining in the cortex [1]	IgG immunoreactivity in subcortex [1]	IgG immunoreactivity in whole hemisphere (total) [1]
CC/C=C\C/C=C\C/C=C\C/C=C\C/C=C\C/C=C\CCCCCCCCCCCCC(=O)O [32:6n3, (14Z,17Z,20Z,23Z,26Z,29Z)-dotriaconta-14,17,20,23,26,29-hexaenoic acid]	elicit protection against UOS	–	–	–	–	–	–
CC/C=C\C/C=C\C/C=C\C/C=C\C/C=C\C/C=C\CCCCCCCCCCCCCCC(=O)O [34:6n3, (16Z,19Z,22Z,25Z,28Z,31Z)-tetratriaconta-16,19,22,25,28,31-hexaenoic acid]	elicit protection against UOS	–	–	–	–	–	–
CC/C=C\C[C@H](O)\C=C/C=C/C=C/[C@H](O)C/C=C\C/C=C\CCCCCCCCCCCCC(=O)OC [ELV-N32-Me, methyl (14Z,17Z,20R,21E,23E,25Z,27S,29Z)-20,27-dihydroxydotriaconta-14,17,21,23,25,29-hexaenoate]	–	similar	–	–	–	–	–
CC/C=C\C[C@H](O)\C=C/C=C/C=C/[C@H](O)C/C=C\C/C=C\CCCCCCCCCCCCC(=O)[O-].[Na+] [ELV-N32-Na, sodium (14Z,17Z,20R,21E,23E,25Z,27S,29Z)-20,27-dihydroxydotriaconta-14,17,21,23,25,29-hexaenoate]	–	similar	attenuation of apoptosis	attenuated	–	–	–
CC/C=C\C[C@H](O)\C=C/C=C/C=C/[C@H](O)C/C=C\C/C=C\CCCCCCCCCCCCCCC(=O)OC [ELV-N34-Me, methyl (16Z,19Z,22R,23E,25E,27Z,29S,31Z)-22,29-dihydroxytetratriaconta-16,19,23,25,27,31-hexaenoate]	–	–	–	attenuated	significantly less IgG staining	significantly reduced	significantly reduced
CC/C=C\C[C@H](O)\C=C/C=C/C=C/[C@H](O)C/C=C\C/C=C\CCCCCCCCCCCCCCC(=O)[O-].[Na+] [ELV-N34-Na, sodium (16Z,19Z,22R,23E,25E,27Z,29S,31Z)-22,29-dihydroxytetratriaconta-16,19,23,25,27,31-hexaenoate]	–	–	attenuation of apoptosis	–	significantly less IgG staining	significantly reduced	significantly reduced
